Results as given in US12059422B2 (MEI Pharma, Inc., priority 2011, dated 2024).

How the values were obtained:
PI3Kγ = target: T1, PI3Kγ (Mus musculus, UniProt Q9JHG7); assay: ELISA assay for PI3Kγ: in-cell ELISA, phosphorylation of AKT (Ser473) in RAW 264.7 cells; format: cell-based; settings: cellular, pAKT (Ser473), C5a stimulation, read-out: IC50 p110γ
T1 construct: endogenous in cells; host or cells: RAW 264.7 (ATCC #TIB-71)
Experimental: PI3K gamma (PI3Kγ) activity was determined by measuring the phosphorylation of AKT (Ser473) using an in-cell ELISA assay. RAW 264.7 (mouse macrophage) cells were obtained from ATCC (ATCC #TIB-71). Growth medium was DMEM (CellGro #CV-10-013-CV) supplemented with 10% fetal bovine serum, 100 IU/mL penicillin, 100 μg/mL streptomycin, and 1×MEM non-essential amino acids. Phosphate buffered saline (PBS) contained 2.7 M NaCl, 54 mM KCl, 86 mM […] (dibasic, anhydrous), and 28 mM […] (monobasic, anhydrous) at pH 7.2. Stimulation mixture (10×) was 500 ng/mL recombinant human complement component C5a (R&D systems #2037-C5-025) diluted in serum-free DMEM medium (CellGro #CV-10-013-CV). Compounds for testing were dissolved and serially diluted in 100% DMSO (total of 10 concentrations), then diluted in serum-free DMEM to 2× final assay concentration. Fixative solution (2×) was 8% formaldehyde (Amresco #M134) diluted in PBS. Permeabilization solution was PBS supplemented with 0.10% Triton X-100. Blocking buffer was obtained from LiCor (LiCor #927-40000). Wash buffer was PBS supplemented with 0.1% Tween-20. Primary antibody solution was rabbit anti-pAKT^S473 monoclonal antibody (Cell Signaling #4060) and mouse anti-total S6 (Santa Cruz #74459) diluted 1:500 and 1:2000, respectively, in the blocking buffer. Secondary antibody solution was IRDye 800CW-conjugated goat anti-rabbit IgG (LiCor #926-32211) and IRDye 680LT-conjugated goat anti-mouse IgG (LiCor #926-68020) diluted 1:1000 and 1:2000, respectively, in the blocking buffer.
RAW 264.7 cells were subcultured in growth medium and seeded into flat, clear bottom, 96-well plates (Corning #3904) at 70000 cells/well, then incubated overnight in a 37° C., 5% CO2 incubator. Growth medium in plates was replaced with 100 μL/well serum-free DMEM and incubated overnight in a 37° C., 5% CO2 incubator. Fresh serum-free DMEM (50 μL/well) was added to plates. Compound treatment was performed by adding 50 μL/well of 2× compound mixture to plates and incubating for 2 hrs at 37° C., 5% CO2, after which 11 μL/well of 10× stimulation mixture was added and plates were incubated for 3 min at 37° C., 5% CO2. Fixation was performed by adding 110 μL/well of 2× fixative solution to plates and incubating for 20 min at room temperature. Permeabilization was performed by replacing fixation solution with 150 μL/well permeabilization solution and incubating for 10 min at room temperature. Permeabilization was repeated (for a total of 2 times). Permeabilization solution was replaced with 100 μL/well blocking buffer and plates were incubated for 1 hr at room temperature, after which 100 μL/well of primary antibody solution was added and plates were incubated overnight at 4° C. Plates were washed with wash buffer, after which 100 μL/well of secondary antibody solution was added to the plates and incubated in the dark for 1 hr at room temperature. Plates were washed with wash buffer, followed by awash with PBS. After completely removing PBS, plates were scanned on the Licor Odyssey Imager. Images were quantified using Licor Odyssey application software. IC50 values were determined by curve fitting using a Collaborative Drug Discovery database (www.collaborativedrug.com).

PI3K gamma = target: T2, PI3K gamma (Homo sapiens, UniProt P48736); assay: Luciferase-based luminescence assay (ADP Glo), PI3K gamma enzymatic activity; format: biochemical; settings: inhibition of enzymatic activity, 25 μM ATP, read-out: IC50 p110γ
T2 construct: purchased Invitrogen Corp., Carlsbad, CA, USA
T2 sequence (P48736 whole entry, species assumed): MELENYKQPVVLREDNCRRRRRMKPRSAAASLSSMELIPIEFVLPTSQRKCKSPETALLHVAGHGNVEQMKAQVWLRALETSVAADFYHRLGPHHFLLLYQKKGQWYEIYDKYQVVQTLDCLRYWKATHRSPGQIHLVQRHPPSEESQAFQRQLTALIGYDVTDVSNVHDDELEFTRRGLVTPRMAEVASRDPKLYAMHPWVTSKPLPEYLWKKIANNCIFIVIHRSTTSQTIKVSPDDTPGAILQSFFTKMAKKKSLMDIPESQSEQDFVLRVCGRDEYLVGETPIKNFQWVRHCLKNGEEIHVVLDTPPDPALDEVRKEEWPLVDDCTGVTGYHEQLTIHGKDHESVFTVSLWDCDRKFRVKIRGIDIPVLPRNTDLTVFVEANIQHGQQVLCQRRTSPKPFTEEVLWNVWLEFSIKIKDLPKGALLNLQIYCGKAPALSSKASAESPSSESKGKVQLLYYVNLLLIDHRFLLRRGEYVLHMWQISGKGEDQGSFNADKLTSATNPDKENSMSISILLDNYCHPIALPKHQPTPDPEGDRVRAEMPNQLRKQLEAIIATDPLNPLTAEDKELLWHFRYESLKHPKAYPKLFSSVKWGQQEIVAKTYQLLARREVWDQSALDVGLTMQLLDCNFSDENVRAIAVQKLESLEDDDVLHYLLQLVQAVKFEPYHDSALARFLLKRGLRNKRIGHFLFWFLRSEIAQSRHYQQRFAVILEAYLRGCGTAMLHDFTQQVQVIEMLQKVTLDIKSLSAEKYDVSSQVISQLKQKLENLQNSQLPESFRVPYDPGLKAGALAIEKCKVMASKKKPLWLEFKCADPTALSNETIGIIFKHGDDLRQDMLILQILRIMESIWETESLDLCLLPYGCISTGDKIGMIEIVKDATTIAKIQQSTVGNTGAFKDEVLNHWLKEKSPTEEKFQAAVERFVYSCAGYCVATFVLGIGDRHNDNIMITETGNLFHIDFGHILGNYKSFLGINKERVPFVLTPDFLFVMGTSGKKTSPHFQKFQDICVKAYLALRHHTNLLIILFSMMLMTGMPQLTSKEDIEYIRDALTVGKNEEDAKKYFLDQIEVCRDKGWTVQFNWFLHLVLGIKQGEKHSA
In short: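 Final enzyme 4.8 nM PI3K beta or 7.6 nM PI3K gamma, with 50 μM PIP2 and 25 μM ATP, 1 h in HEPES pH 7.5 buffer with MgCl2, EGTA, NaCl, CHAPS and DTT. ADP formed measured by ADP-Glo luminescence; IC50 from 10-point curve fits.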

T1 sequence (Q9JHG7 whole entry): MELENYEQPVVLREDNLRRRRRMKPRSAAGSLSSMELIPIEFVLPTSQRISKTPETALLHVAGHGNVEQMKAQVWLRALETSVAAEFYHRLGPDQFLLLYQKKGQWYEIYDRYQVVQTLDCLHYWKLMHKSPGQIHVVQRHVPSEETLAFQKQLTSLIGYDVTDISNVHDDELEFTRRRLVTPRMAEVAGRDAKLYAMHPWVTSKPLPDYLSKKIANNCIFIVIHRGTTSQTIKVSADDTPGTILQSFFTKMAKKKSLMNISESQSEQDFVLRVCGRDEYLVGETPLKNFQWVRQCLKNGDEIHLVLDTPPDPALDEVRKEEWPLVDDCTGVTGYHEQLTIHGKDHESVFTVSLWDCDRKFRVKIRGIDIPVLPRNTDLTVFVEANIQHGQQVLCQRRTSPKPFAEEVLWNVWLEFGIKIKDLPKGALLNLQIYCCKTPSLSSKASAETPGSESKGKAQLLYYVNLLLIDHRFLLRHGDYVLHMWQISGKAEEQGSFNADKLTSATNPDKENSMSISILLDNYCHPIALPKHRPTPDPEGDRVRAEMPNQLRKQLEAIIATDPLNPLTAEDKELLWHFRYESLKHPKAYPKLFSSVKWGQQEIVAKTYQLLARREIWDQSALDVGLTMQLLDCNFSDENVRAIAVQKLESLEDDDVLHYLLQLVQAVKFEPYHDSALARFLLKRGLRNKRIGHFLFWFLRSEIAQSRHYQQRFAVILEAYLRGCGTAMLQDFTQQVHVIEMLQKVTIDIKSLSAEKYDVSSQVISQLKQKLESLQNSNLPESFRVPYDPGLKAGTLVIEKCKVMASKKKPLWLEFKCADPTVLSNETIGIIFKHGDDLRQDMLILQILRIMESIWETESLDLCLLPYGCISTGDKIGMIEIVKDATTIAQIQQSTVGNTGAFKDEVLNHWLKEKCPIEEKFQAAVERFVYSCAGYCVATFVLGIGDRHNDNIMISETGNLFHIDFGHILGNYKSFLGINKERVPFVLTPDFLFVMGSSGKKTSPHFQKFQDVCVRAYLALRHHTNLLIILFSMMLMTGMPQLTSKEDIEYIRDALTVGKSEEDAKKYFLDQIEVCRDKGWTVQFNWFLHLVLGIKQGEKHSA

Row | IC50 (PI3Kγ) | IC50 (PI3K gamma) | Compound
1 | 200 to 500 nM | > 500 nM | CC(C)(Cc1ccccc1C1CCNC1)Nc1nc(N2CCOCC2)nc(-n2c(C(F)F)nc3ccccc32)n1 (stereo not shown) [Compound A74, 4-(2-(difluoromethyl)-1H-benzo[d]imidazol-1-yl)-N-(2-methyl-1-(2-(pyrrolidin-3-yl)phenyl)propan-2-yl)-6-morpholino-1,3,5-triazin-2-amine]
2 | > 500 nM | > 500 nM | CN(C)CCCc1ccccc1CC(C)(C)Nc1nc(N2CCOCC2)nc(-n2c(C(F)F)nc3ccccc32)n1 [Compound A76, 4-(2-(difluoromethyl)-1H-benzo[d]imidazol-1-yl)-N-(1-(2-(3-(dimethylamino)propyl)phenyl)-2-methylpropan-2-yl)-6-morpholino-1,3,5-triazin-2-amine]
